Test results from US11332498B2, “Ligands for integrin αVβ8, synthesis and uses thereof” (Technische Universitat Munchen, priority 2017, dated 2022).
Where two headings read alike, the source gives them in different places. Each block holds one molecule with its values, some of them ahead of it. Where a SMILES comes first, the peptide text is derived from it. Bridges are numbered along the chain shown (N, C = ends). Roman numbers before positions name the chains, in order. Side-chain parts run from the residue outwards. [ ]: non-standard residue; d: D form. The star is where a group is joined. BODIPY(FL) = CC1=CC(C)=[N+]2C1=Cc1ccc(CCC(=O)*)n1[B-]2(F)F; NMeK = CN[C@@H](CCCCN)C(=O)O; Ahx = NCCCCCC(=O)O

What was measured:
αvβ5 = αvβ5 (Homo sapiens, UniProt P06756+P18084); test: solid-phase integrin binding assay, αvβ5
Description: (§1) The activity and selectivity of integrin ligands were determined by a solid-phase binding assay according to the previously reported protocols using coated extracellular matrix proteins and soluble integrins: Fibronectin (Fn) for α5β1, latent activating protein (LAP) for αvβ6 and αvβ8, Vitronectin (Vn) for αvβ3 and αvβ5, Fibrinogen (Fbg) for αIIbβ3.

α5β1 = α5β1 (Homo sapiens, UniProt P05556+P08648); test: solid-phase integrin binding assay, α5β1
Description: as §1

αvβ6 = αvβ6 (Homo sapiens, UniProt P06756+P18564); test: solid-phase integrin binding assay, αvβ6
Description: as §1

αvβ8 = αvβ8 (Homo sapiens, UniProt P06756+P26012); test: solid-phase integrin binding assay, αvβ8; conditions: for IC50: Table 1, coated LAP, soluble integrin, read-out: αvβ8 [nM] (integrin binding affinity)
αvβ3 = αvβ3 (Homo sapiens, UniProt P05106+P06756); test: solid-phase integrin binding assay, αvβ3; conditions: Table 2; coated Vitronectin
Description: as §1

αIIbβ3 = αIIbβ3 (Homo sapiens, UniProt P05106+P08514); test: solid-phase integrin binding assay, αIIbβ3; conditions: Table 2; coated Fibrinogen
Description: as §1

[1] = Table 3, BDPFL-labelled compounds and comparatives
[2] = Table 1, coated LAP, soluble integrin, read-out: αvβ6 [nM] (integrin binding affinity)

Sequence of αvβ6 (P06756 31-889 limits assumed): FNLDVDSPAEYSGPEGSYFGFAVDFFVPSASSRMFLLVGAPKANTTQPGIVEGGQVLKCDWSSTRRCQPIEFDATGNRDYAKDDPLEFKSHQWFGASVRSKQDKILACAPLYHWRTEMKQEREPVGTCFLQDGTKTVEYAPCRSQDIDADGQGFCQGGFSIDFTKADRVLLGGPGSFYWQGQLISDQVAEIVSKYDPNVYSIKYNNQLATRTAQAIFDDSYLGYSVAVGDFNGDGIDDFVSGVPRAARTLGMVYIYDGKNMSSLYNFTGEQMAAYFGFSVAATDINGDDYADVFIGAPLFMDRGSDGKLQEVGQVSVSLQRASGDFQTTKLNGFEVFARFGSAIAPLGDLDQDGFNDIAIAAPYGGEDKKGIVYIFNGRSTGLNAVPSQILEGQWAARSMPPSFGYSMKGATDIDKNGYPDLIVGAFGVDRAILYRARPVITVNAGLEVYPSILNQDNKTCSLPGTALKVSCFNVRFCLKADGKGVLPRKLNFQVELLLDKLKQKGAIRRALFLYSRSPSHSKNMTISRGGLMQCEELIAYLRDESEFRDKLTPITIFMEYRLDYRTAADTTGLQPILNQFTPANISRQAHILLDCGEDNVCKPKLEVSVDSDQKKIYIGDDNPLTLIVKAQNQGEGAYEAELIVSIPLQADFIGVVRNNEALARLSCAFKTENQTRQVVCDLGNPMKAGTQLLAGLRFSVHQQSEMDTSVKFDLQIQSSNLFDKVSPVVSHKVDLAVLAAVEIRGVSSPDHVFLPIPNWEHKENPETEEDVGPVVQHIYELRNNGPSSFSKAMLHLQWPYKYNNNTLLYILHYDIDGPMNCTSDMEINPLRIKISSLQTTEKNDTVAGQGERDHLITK
Sequence of αvβ6 (P06756 891-992 partner limits assumed): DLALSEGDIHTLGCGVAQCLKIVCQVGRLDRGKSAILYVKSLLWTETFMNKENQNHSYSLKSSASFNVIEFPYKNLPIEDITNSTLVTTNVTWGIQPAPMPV
Sequence of αvβ6 (P18564 22-707 limits assumed): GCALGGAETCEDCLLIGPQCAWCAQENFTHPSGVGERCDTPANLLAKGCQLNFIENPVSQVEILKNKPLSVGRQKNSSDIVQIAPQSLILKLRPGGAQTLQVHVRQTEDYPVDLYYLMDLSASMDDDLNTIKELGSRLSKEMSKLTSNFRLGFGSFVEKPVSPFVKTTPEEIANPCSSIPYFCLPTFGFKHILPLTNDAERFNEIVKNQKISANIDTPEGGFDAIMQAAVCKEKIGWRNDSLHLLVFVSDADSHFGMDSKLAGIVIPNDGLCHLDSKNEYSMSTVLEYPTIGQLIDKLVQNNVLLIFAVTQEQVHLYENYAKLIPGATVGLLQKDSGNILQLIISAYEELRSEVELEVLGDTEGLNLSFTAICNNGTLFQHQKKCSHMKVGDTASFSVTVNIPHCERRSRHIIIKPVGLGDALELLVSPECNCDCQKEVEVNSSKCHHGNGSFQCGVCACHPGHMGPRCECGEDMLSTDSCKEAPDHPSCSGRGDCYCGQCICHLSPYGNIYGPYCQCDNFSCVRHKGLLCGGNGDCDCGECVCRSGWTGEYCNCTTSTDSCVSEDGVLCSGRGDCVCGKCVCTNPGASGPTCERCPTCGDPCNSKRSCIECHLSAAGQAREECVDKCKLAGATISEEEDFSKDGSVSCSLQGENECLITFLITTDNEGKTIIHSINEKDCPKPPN
Sequence of αvβ5 (P06756 31-889 limits assumed): as the sequence (P06756 31-889 limits assumed) above
Sequence of αvβ5 (P06756 891-1048 partner limits assumed): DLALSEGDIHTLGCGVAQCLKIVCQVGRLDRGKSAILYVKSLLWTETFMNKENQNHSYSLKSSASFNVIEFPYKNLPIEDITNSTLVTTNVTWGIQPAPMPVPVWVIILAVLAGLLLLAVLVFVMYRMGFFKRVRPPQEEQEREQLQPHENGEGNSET
Sequence of αvβ5 (P18084 24-799): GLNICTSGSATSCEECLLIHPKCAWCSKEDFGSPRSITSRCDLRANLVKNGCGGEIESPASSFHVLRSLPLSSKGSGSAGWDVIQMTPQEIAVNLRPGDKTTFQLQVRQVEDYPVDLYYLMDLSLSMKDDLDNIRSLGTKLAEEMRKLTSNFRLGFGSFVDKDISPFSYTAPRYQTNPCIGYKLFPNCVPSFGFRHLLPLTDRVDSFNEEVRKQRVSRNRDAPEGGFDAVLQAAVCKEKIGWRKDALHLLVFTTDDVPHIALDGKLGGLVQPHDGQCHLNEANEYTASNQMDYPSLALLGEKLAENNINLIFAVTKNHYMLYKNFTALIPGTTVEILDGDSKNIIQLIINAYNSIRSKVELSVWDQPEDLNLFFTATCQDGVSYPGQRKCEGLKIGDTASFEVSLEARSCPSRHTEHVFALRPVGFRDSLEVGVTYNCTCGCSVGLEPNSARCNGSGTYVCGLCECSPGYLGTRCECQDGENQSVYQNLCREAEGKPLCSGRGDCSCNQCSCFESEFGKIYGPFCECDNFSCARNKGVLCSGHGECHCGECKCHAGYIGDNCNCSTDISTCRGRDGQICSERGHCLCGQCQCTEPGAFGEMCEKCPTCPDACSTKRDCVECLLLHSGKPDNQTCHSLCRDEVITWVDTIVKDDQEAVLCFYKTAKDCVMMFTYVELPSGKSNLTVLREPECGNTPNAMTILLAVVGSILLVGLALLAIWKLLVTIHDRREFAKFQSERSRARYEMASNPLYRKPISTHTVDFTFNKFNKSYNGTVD
Sequence of αvβ8 (P06756 31-889 limits assumed): as the sequence (P06756 31-889 limits assumed) above
Sequence of αvβ8 (P06756 891-992 partner limits assumed): as the sequence (P06756 891-992 partner limits assumed) above
Sequence of αvβ8 (P26012 43-684 limits assumed): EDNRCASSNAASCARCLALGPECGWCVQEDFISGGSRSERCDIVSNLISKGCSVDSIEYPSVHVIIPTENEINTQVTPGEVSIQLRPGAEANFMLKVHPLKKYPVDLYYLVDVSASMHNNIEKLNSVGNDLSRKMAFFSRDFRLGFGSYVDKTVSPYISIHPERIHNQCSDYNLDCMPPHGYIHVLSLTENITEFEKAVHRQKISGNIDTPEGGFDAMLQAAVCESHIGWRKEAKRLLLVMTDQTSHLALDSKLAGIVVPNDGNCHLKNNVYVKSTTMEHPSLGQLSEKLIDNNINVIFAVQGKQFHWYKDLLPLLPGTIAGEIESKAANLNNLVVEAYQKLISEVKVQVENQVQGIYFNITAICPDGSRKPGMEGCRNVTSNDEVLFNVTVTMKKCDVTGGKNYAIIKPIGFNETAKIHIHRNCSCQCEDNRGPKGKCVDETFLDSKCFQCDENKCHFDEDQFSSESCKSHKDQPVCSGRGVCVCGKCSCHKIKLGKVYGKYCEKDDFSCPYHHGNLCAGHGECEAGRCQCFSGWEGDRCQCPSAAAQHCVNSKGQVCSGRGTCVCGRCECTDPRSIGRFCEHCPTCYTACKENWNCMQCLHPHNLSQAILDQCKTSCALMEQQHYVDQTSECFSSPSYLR
Sequence of αvβ3 (P06756 31-889 limits assumed): as the sequence (P06756 31-889 limits assumed) above
Sequence of αvβ3 (P06756 891-992 partner limits assumed): as the sequence (P06756 891-992 partner limits assumed) above
Sequence of αvβ3 (P05106 27-718 limits assumed): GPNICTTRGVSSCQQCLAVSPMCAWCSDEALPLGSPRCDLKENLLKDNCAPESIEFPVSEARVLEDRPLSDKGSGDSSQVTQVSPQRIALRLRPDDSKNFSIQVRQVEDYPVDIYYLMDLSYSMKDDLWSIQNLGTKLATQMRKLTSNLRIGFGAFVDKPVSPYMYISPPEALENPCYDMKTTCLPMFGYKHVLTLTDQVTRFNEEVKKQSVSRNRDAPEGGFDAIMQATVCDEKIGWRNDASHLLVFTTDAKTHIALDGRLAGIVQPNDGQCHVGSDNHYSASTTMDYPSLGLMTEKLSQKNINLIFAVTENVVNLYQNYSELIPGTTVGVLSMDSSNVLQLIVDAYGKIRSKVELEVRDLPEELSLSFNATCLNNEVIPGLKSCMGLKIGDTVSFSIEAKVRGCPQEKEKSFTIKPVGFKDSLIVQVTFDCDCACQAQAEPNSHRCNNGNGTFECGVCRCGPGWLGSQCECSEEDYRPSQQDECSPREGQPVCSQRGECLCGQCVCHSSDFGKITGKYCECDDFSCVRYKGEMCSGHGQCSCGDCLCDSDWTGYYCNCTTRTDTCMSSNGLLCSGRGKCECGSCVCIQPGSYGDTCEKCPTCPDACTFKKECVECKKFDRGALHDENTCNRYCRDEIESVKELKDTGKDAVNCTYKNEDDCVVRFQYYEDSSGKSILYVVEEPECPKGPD

SMILES: Cc1cc(C)n2c1C=C1C=CC(CCC(=O)NCCCC[C@H]3C(=O)NCC(=O)N[C@@H](CC(C)C)C(=O)N[C@@H](CCCNC(=N)N)C(=O)NCC(=O)N[C@@H](CC(=O)O)C(=O)N[C@@H](CC(C)C)C(=O)N4CCC[C@@H]4C(=O)N3C)=[N+]1[B-]2(F)F [Compound 9a, 9-BDPFL] (cyclo(RGDL[dP][NMeK](BODIPY(FL))GL))
IC50 (αvβ5; [1]): > 10000 nM

SMILES: CC1=CC(C)=[N+]2C1=Cc1ccc(CCC(=O)NCCCCCC(=O)NCCCC[C@H]3C(=O)NCC(=O)N[C@@H](CC(C)C)C(=O)N[C@@H](CCCNC(=N)N)C(=O)NCC(=O)N[C@@H](CC(=O)O)C(=O)N[C@@H](CC(C)C)C(=O)N4CCC[C@@H]4C(=O)N3C)n1[B-]2(F)F [Compound 9b, 9-Ahx-BDPFL] (cyclo(RGDL[dP][NMeK]([Ahx-BODIPY(FL)])GL))
IC50 (αvβ5; [1]): > 10000 nM
IC50 (α5β1; [1]): > 1000 nM

SMILES: Cc1cc(C)n2c1C=C1C=CC(CCC(=O)NCC(=O)N3CCC[C@H]3C(=O)N3CCC[C@H]3C(=O)N3CCC[C@H]3C(=O)NCC(=O)NCCCC[C@H]3C(=O)NCC(=O)N[C@@H](CC(C)C)C(=O)N[C@@H](CCCNC(=N)N)C(=O)NCC(=O)N[C@@H](CC(=O)O)C(=O)N[C@@H](CC(C)C)C(=O)N4CCC[C@@H]4C(=O)N3C)=[N+]1[B-]2(F)F [Compound 9e, 9-G(P)3G-BDPFL] (I: cyclo(RGDL[dP][NMeK]GL) / II: {BODIPY(FL)}-GPPPG; amide I:6-II:C)
IC50 (αvβ5; [1]): > 10000 nM
IC50 (αvβ6; Table 3, BDPFL-labelled compounds and comparatives, read-out: αvβ6, IC50): 247 nM

SMILES: Cc1cc(C)n2c1C=C1C=CC(CCC(=O)NCC(=O)N3CCC[C@H]3C(=O)N3CCC[C@H]3C(=O)N3CCC[C@H]3C(=O)N3CCC[C@H]3C(=O)N3CCC[C@H]3C(=O)N3CCC[C@H]3C(=O)NCC(=O)NCCCC[C@H]3C(=O)NCC(=O)N[C@@H](CC(C)C)C(=O)N[C@@H](CCCNC(=N)N)C(=O)NCC(=O)N[C@@H](CC(=O)O)C(=O)N[C@@H](CC(C)C)C(=O)N4CCC[C@@H]4C(=O)N3C)=[N+]1[B-]2(F)F [Compound 9f, 9-G(P)6G-BDPFL] (I: {BODIPY(FL)}-GPPPPPPG / II: cyclo(RGDL[dP][NMeK]GL); amide I:C-II:6)
IC50 (αvβ5; [1]): > 10000 nM
binding activity to αvβ8 (in words) (αvβ8; comparison with compound 9, comment on Table 3): reduced binding activity

IC50 (αvβ6; [2]): 210 nM
IC50 (αvβ8): 0.93 nM
SMILES: CC(C)C[C@@H]1NC(=O)CNC(=O)[C@@H]2CCCN2C(=O)[C@H]2CCCN2C(=O)[C@H](CC(C)C)NC(=O)[C@H](CC(=O)O)NC(=O)CNC(=O)[C@H](CCCNC(=N)N)NC1=O [compound 2, Cyclo-(Arg-Gly-Asp-Leu-D-Pro-Pro-Gly-Leu)] (cyclo(RGDL[dP]PGL))

SMILES: CC(C)C[C@@H]1NC(=O)CNC(=O)[C@H](CCCCN)N(C)C(=O)[C@H]2CCCN2C(=O)[C@H](CC(C)C)NC(=O)[C@H](CC(=O)O)NC(=O)CNC(=O)[C@H](CCCNC(=N)N)NC1=O [compound 8, Cyclo-(Arg-Gly-Asp-Leu-D-Pro-(N-Me-Lys)-Gly-Leu)] (cyclo(RGDL[dP][NMeK]GL))
IC50 (αvβ5; Table 2, coated Vitronectin): > 1000 nM
IC50 (α5β1; Table 2, coated Fibronectin): > 1000 nM
IC50 (αvβ3): > 1000 nM
IC50 (αIIbβ3): > 1000 nM
IC50 (αvβ6; [2]): 201 nM
IC50 (αvβ8): 6.5 nM

SMILES: CC(=O)NCCCC[C@H]1C(=O)NCC(=O)N[C@@H](CC(C)C)C(=O)N[C@@H](CCCNC(=N)N)C(=O)NCC(=O)N[C@@H](CC(=O)O)C(=O)N[C@@H](CC(C)C)C(=O)N2CCC[C@@H]2C(=O)N1C [compound 9, Cyclo-(Arg-Gly-Asp-Leu-D-Pro-(N-Me-Lys(Ac))-Gly-Leu)] (cyclo(RGDL[dP][NMeK](Ac)GL))
IC50 (αvβ6; [2]): 201 nM
IC50 (αvβ8): 6 nM
